From patent publication US20140228287A1, “1-[(3-CYANO-PYRIDIN-2-YL)METHYL]-3-METHYL-7-(2-BUTYN-1-YL)-8-[3-(R)-AMINO-PIPERIDIN-1-YL]-AXANTHINE FOR THE TREATMENT OF A METABOLIC DISORDER OF A PREDOMINANTLY CARNIVOROUS NON-HUMAN ANIMAL” (BOEHRINGER INGELHEIM VETMEDICA GMBH, priority 2010, published 2014)
Where a name gives a salt, the structure may show the parent alone.

Tests used:
DPP IV = target: T1, DPP IV (Felis catus, UniProt Q9N2I7); experiment: 60-Day tolerability study of tablets in cats: relative DPP IV activity; format: in vivo, cat; conditions: percent of day 2 predose
T1 construct: Blood samples for the determination of this compound and DPP IV activity were collected; from tissue; host or cells: plasma of domestic short hair / purpose-bred cats dosed orally
T1 sequence (Q9N2I7 38-765 limits assumed): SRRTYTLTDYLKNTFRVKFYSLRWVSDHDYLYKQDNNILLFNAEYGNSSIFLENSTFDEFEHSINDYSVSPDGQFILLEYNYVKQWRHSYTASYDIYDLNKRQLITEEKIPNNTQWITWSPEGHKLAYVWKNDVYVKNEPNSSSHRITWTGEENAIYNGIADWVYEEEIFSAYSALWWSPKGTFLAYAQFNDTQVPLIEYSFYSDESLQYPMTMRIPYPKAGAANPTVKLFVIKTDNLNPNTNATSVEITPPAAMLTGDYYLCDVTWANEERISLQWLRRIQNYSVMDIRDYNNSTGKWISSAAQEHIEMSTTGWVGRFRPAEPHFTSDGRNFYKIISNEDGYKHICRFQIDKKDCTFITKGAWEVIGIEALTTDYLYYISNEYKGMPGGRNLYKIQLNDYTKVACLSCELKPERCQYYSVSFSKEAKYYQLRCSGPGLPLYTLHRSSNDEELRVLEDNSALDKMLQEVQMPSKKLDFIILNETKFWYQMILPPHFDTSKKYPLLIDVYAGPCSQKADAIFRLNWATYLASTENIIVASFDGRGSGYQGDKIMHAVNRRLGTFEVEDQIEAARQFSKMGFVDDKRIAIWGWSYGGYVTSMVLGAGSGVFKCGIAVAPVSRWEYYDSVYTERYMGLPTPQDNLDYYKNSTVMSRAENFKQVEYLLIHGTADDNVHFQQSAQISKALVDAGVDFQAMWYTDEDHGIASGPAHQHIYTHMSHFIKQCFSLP
Experimental: This study was conducted in order to examine the long-term tolerability of a pharmaceutical composition comprising 1-[(3-cyano-pyridin-2-yl)methyl]-3-methyl-7-(2-butyn-1-yl)-8-[3-(R)-amino-piperidin-1-yl]-xanthine monohydrochloride in cats after repeated oral administration for 60-days.
For this purpose, the compound according to the invention has been admixed with standard ingredients to a scored, oblong, brown tablet, size 10×5.5 mm, comprising 1-[(3-cyano-pyridin-2-yl)methyl]-3-methyl-7-(2-butyn-1-yl)-8-[3-(R)-amino-piperidin-1-yl]-xanthine monohydrochloride at 21.68 mg of the chloride per tablet (which equals 20 mg of the free base) and 10% meat flavour.
20 male healthy non-obese cats (Domestic short hair feline) supplied by Liberty Research, Inc., Waverly, N.Y., USA, of an age of 13 to 20 months were used. After an adaptation period of 4 weeks, they were separated into three groups: group 1 (6 members, no. 1 to 6) for placebo treatment, group 2 (7 members, no. 7 to 13) for treatment with 20 mg/cat, group 3 (7 members, no. 14 to 20) for treatment with 40 mg/cat. They were treated once daily in the morning, orally with the respective tablet(s) for 60 days. All animals had fasted over night and were fed 4 hours after the administration. Drinking water was offered ad libitum. Housing conditions etc. were kept constant and equally for all animals; they were kept in groups during the adaptation period and singly during the experimental period.
Relative DPP-IV activity was measured as described above.

plasma DPP IV [1] = experiment: Plasma DPP IV activity after oral administration, Rhesus monkey; format: in vivo; conditions: 1 mg/kg oral, 24 hours post dose
Experimental: The effect of 1-[(3-cyano-pyridin-2-yl)methyl]-3-methyl-7-(2-butyn-1-yl)-8-[3-(R)-amino-piperidin-1-yl]-xanthine on plasma DPP IV activity after oral administration was investigated in the rat, the Beagle dog and the Rhesus monkey. These investigations were conducted as described in the following.
Overnight fasted Rhesus monkeys (n=4; 2 males and 2 females) were administered oral doses of 1-[(3-cyano-pyridin-2-yl)methyl]-3-methyl-7-(2-butyn-1-yl)-8-[3-(R)-amino-piperidin-1-yl]-xanthine monohydrochloride at 1 mg/kg bw. Blood samples were drawn from a butterfly that was inserted into a forearm vein of restrained monkeys. Blood was collected in EDTA tubes prior to administration of 1-[(3-cyano-pyridin-2-yl)methyl]-3-methyl-7-(2-butyn-1-yl)-8-[3-(R)-amino-piperidin-1-yl]-xanthine monohydrochloride and subsequently at 0.5, 1, 2, 4, 8, 24, 48, and 72 hour time points post dose. Plasma was prepared following blood collection and frozen for determination of DPP-IV activity.

plasma DPP IV [2] = target: T2, plasma DPP IV (Homo sapiens, UniProt P27487); experiment: Inhibition of plasma DPP IV activity in vitro, human plasma; format: biochemical
T2 construct: from tissue; host or cells: human plasma
T2 sequence (P27487 39-766 limits assumed): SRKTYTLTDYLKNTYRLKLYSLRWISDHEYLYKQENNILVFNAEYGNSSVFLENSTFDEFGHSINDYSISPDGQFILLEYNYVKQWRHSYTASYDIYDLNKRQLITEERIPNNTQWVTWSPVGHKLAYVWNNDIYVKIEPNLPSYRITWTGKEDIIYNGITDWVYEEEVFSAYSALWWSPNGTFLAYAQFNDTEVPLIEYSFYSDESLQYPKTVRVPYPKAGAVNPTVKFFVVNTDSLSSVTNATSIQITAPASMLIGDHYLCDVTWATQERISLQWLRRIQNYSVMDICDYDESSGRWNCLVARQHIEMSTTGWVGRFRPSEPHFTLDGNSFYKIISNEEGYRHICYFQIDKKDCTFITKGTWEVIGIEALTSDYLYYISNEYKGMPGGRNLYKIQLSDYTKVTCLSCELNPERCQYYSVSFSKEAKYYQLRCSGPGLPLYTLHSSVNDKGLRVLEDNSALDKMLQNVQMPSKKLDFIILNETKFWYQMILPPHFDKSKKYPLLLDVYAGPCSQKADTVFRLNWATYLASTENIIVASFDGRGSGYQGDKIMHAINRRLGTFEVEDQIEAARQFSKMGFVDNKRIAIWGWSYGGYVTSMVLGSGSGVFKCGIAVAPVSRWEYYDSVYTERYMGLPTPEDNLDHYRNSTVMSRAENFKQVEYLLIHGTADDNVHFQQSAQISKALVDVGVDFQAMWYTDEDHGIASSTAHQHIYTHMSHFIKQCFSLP
Experimental: Studies were also conducted to assess the inhibitory effect of this compound on plasma DPP IV activity in several species.

In the case of `CC#CCn1c(N2CCC[C@@H](N)C2)nc2c1c(=O)n(Cc1ncccc1C#N)c(=O)n2C` [1-[(3-cyano-pyridin-2-yl)methyl]-3-methyl-7-(2-butyn-1-yl)-8-[3-(R)-amino-piperidin-1-yl]-xanthine monohydrochloride], the “Relative DPP IV activity” value (DPP IV; Group no. 2 (20 mg daily tablets), Treatment day 60 (1 h after dose)) is reported as 11%, the “Relative DPP IV activity” value (DPP IV; Group no. 2, excl. animal no. 8 (20 mg daily tablets), Treatment day 60 (predose)) is reported as 17% and the “Relative DPP IV activity” value (DPP IV; Group no. 3 (40 mg daily tablets), Treatment day 60 (1 h after dose)) is reported as 10%. For the same molecule, the “Relative DPP IV activity” value (DPP IV; Group no. 3 (40 mg daily tablets), Treatment day 60 (predose)) was 16%, the “inhibition of plasma DPP IV activity” value (plasma DPP IV [1]) was 54% and the IC50 (plasma DPP IV [2]) was about 0.6 nM.
